Results taken from article PMC12292233, “Effects of 2-Hydroxypropyl-β-Cyclodextrin on the Antioxidant Efficiency of Some Gallic Acid Derivatives in Soybean Oil-in-Water Emulsions” (Antioxidants, 2025).

Legend:
[1] = Kinetics of lipid oxidation (conjugated dienes, AOCS Ti 1a 64) in soybean oil-in-water emulsions; conditions: T = 60 °C; for relative efficiency order in inhibiting lipid peroxidation: 1:9 O/W emulsion, time to 0.5% increase in conjugated dienes; for relative efficiency order in inhibiting lipid peroxidation / effect of addition of HPCD on oxidative stability of the emulsion loaded with the antioxidant: ΦI = 0.008, [AO] = 0.1 mM
Protocol: The 1:9 oil-in-water emulsions were prepared by mixing 1 mL of stripped soybean oil and 9 mL of buffered aqueous solution (citric–citrate buffer 0.04 M pH 3.0) and different amounts of the surfactant Tween 20 (ΦI = Vsurfactant/Vemulsion = 0.005 − 0.04). Emulsions prepared without antioxidants were used as controls. In the others, the antioxidants GA, PG, OG, and LG were added to the aqueous (GA, PG) or oil (OG, LG) phases. The mixtures were stirred for at least 60 s at 20000 rpm at room temperature by employing a high-speed rotor (Polytron PT 1600 E, Kinematica, Fisher Scientific S.L., Madrid, Spain). All emulsions were prepared in triplicate and reported values are average.
The kinetics of the lipid peroxidation of soybean oil-in-water emulsions were monitored by determining the variation in the formation of conjugated dienes (CDs) with time according to the AOCS Official Method Ti 1a 64 in both the absence (control) and the presence of antioxidants (stoichiometric [AO] = 10^−4 M). Briefly, 1:9 O/W emulsions (ΦI = 0.008) were transferred to 25 mL screw-capped erlenmeyer flasks and were placed in an orbital shaker (Incubator Heidolph 1000 orbital stirrer, Heidolph Scientific Products GmbH, Schwabach, Germany) equipped with a Heidolph thermostat 1010 to the control temperature at 148 rpm and T = 60 °C (±1 °C) in the dark.
Aliquots (25 µL) of the emulsions were removed periodically and diluted to 10 mL with 2-propanol, and the absorbance was measured at λ = 233 nm. The percentage of conjugated dienes (%CD) was determined, as described in the literature, by employing Equation (18), where Coil stands for the concentration of soybean oil in the total volume of the emulsion (density for soybean oil = 0.93 g/mL; T = 25 °C).(18) %CD=1.0769A233nm/Coil(g/L)
The relative efficiency of the antioxidants under the different experimental conditions was quantified by measuring the time needed to increase the CD content by 0.5% (dashed line in Figure 7). We have previously shown that these values are equal to those for the induction period determined from the intersection point of the two linear segments defining the inhibited and uninhibited (propagation) steps [28].

[2] = Distribution of antioxidants in intact soybean oil-in-water emulsions (16-ArN2+ chemical probe, pseudophase kinetic model); format: physicochemical; conditions: for PO^I, partition constant oil-interfacial / PW^I, partition constant water-interfacial / PW^I (app), partition constant water-interfacial: soybean oil-in-water emulsion, Tween 20, T = 25.0 °C; for order of percentage of AO in the interfacial region: at any particular ΦI value
Protocol: Emulsions contain three regions (oil, interface, and aqueous) with distinct solvent properties, and antioxidants are partitioned between them to different extents depending on their hydrophobicity (Figure 4). To prevent disturbance of the existing equilibria, the partition constants were evaluated in the intact emulsions using a well-established chemical method based on the reaction between a chemical probe, 4-hexadecylbenzenediazonium (16-ArN2^+), and the antioxidants. Kinetic results are then analyzed using a pseudophase kinetic model.
The method, along with its assumptions, advantages, and limitations, are described in detail elsewhere; only the relevant parts will be summarized here. 16-ArN2^+ is specifically designed as a water-insoluble chemical probe due to its long hydrophobic tail but with an ionic head group that makes it oil-insoluble. Thus, the reactive (-N2^+) group is located exclusively in the interfacial region. The rate of its reaction with the antioxidant depends on the effective concentration of the antioxidant in that region, which, in turn, depends on its distribution (Figure 4). The partition constants of the antioxidant between the water interfacial (PW^I) and the oil interfacial (PO^I) regions are described by Equations (10) and (11), respectively, where the magnitudes within parenthesis indicate the local concentrations given in moles per liter for a specific region.(10) PWI=(AOI)/(AOW) (11) POI=(AOI)/(AOO)
By employing the formalism of the pseudophase kinetic model, mathematical equations describing the relationships between the measured rate constant (kobs) for the reaction involving 16-ArN2^+ and the AOs and the partition constants can be derived, as was shown in our previous published work. Equation (12) was employed for the AOs, which are distributed between the three regions. Equation (12) can be simplified to Equation (13) for those antioxidants that only partition between the oil and the interfacial regions.(12) kobs=AOTkIPWIPOI/ΦOPWI+ΦIPWIPOI+ΦWPOI (13) kobs=kIAOTPOI/ΦIPOI+ΦO
With the partition constants known, the percentage of AOs at the interface can be determined, and the effective concentration of AOs in each region can be determined straightforwardly by employing Equations (14)–(16).(14) %AOI=100ΦIPWIPOI/ΦOPWI+ΦIPWIPOI+ΦWPOI (15) %AOI=100ΦIPOI/ΦIPOI+ΦO (16) (AOI)=%AOIAOT/ΦI
The application of the pseudophase kinetic model described above requires the determination of the variation in the observed rate constant (kobs) for the reaction between the chemical probe (16ArN2^+) and the antioxidants with the surfactant concentration. Because emulsions are opaque, a special protocol based on a derivatization method has been used to determine the kobs values. Briefly, unreacted arenediazonium ions were rapidly quenched by employing a suitable coupling agent (N-(1-naphthyl)ethylenediammine, NED), leading to the formation of a stable azo dye (Figure 5). The absorbance of the azo dye formed is proportional to the concentration of the unreacted 16ArN2^+ present in the reaction mixture. Further information regarding the experimental procedure is provided in a previous publication.
The kobs values were determined by fitting the absorbance–time data pairs to the pseudo-first-order kinetic equation (Equation (17), where At, A∞, and A0 stand for the absorbance values at time t, infinitive time, and zero time, respectively).(17) lnAt−A∞=lnA0−A∞−kobst
The distribution of the antioxidants in the intact emulsions was assessed through the analysis of the variation in the observed rate constants (kobs) for the reaction between the chemical probe 16-ArN2^+ and the AOs with the emulsifier volume fraction ΦI (Figure 9). Details of this method can be found elsewhere. For all AOs, kobs values decrease asymptotically 3–6 times upon increasing ΦI from ΦI = 0.005 to ΦI = 0.039. […]

[3] = DPPH radical scavenging activity of gallates in absence and presence of HPCD; format: biochemical; conditions: values given as 10^6 × EC50, T = 25 ± 1 °C, reaction time 3600 s, aqueous citric acid/citrate (0.04 M, pH 3)-methanol 50:50 v/v
Protocol: The radical scavenging activity of gallates was obtained by employing the free radical 2,2-diphenyl-1-pycrilhydrazyl DPPH^• and by following the method described by García-Perez et al.. The absorbance decrease in DPPH^• (λ= 515 nm) was monitored in the absence and the presence of CD for different concentrations of AOs ([AO] = […]) in an aqueous–methanolic solution (5:5, v/v) at T = 25 °C. […] The radical scavenging activity was measured in terms of the EC50 values, defined as the gallate concentration required to decrease DPPH^• radicals by half.

[4] = Partition constant in soybean oil-water binary mixtures; format: physicochemical; conditions: T = 25.0 °C
Protocol: Table 2 Partition constants values in soybean oil–water binary mixtures (PW^O) and in soybean oil-in-water emulsions (PW^I and PO^I) for gallates in the absence and the presence of HP-CD; T = 25.0 °C.

[5] = Water solubility (statement); format: physicochemical
[6] = set-up: method as in PMID 34037013, PMID 25180889, PMID 28248497; conditions: based on oxygen uptake; ratio oleic:linoleic:linolenic; ref [25],[26],[27]; cited from earlier work

Compound	PO^I, partition constant oil-interfacial ([2]; [HPCD] = 0)	PO^I, partition constant oil-interfacial ([2]; [HPCD] = 0.013 M)	order of percentage of AO in the interfacial region [2]	EC50 ([3]; 0 M HPCD)	EC50 ([3]; 1.1·10^−2 M HPCD)	relative efficiency order in inhibiting lipid peroxidation [1]	effect of addition of HPCD on oxidative stability of the emulsion loaded with the antioxidant ([1]; [HP-CD] = 0.013 M)	relative oxidation rate [6]	other results
2-Hydroxypropyl-β-cyclodextrin [HPCD]	–	–	–	–	–	–	–	–	effect on the kinetics of oxidation in absence of antioxidants ([1]; 1:9 soybean emulsions without antioxidant, [HP-CD] = 0.013 M): no effect
O=C(O)c1cc(O)c(O)c(O)c1 [GA, gallic acid]	–	–	–	8.36 ± 0.28 µM	7.84 ± 0.08 µM	–	–	–	–
CCCCC/C=C\C/C=C\CCCCCCCC(=O)O [linoleic, linoleic acid]	–	–	–	–	–	–	–	~70	–
CC/C=C\C/C=C\C/C=C\CCCCCCCC(=O)O [linolenic, linolenic acid]	–	–	–	–	–	–	–	~100	–
CCCCCCCC/C=C\CCCCCCCC(=O)O [oleic, oleic acid]	–	–	–	–	–	–	–	approximately 1	–

Now from value to compound, other results behind:

PO^I, partition constant oil-interfacial ([2]; [HPCD] = 0)	PO^I, partition constant oil-interfacial ([2]; [HPCD] = 0.013 M)	order of percentage of AO in the interfacial region [2]	EC50 ([3]; 0 M HPCD)	EC50 ([3]; 1.1·10^−2 M HPCD)	Compound	relative efficiency order in inhibiting lipid peroxidation [1]	effect of addition of HPCD on oxidative stability of the emulsion loaded with the antioxidant ([1]; [HP-CD] = 0.013 M)	relative oxidation rate [6]	other results
238 ± 8	174 ± 9	%BGI > %PGI > %LGI ≈ %OGI	6.02 ± 0.03 µM	5.35 ± 0.04 µM	CCCCOC(=O)c1cc(O)c(O)c(O)c1 [BG, butyl gallate]	LG ≈ OG < PG < < BG	decreases the oxidative stability slightly	–	PW^I, partition constant water-interfacial ([2]; [HPCD] = 0): 772 ± 33; PW^I (app), partition constant water-interfacial ([2]; [HPCD] = 0.013 M): 565 ± 9; relative efficiency order in inhibiting lipid peroxidation ([1]; listed as butyl gallate): highest antioxidant efficiency; PW^O, partition constant [4]: 3.25 ± 0.03
27 ± 9	25 ± 2	%BGI > %PGI > %LGI ≈ %OGI	–	–	CCCCCCCCCCCCOC(=O)c1cc(O)c(O)c(O)c1 [LG, lauryl gallate]	LG ≈ OG < PG < < BG	negligible effect	–	solubility in water [5]: water insoluble
26 ± 7	25 ± 5	%BGI > %PGI > %LGI ≈ %OGI	9.02 ± 1.05 µM	8.27 ± 0.2 µM	CCCCCCCCOC(=O)c1cc(O)c(O)c(O)c1 [OG, octyl gallate]	LG ≈ OG < PG < < BG	negligible effect	–	solubility in water [5]: water insoluble
450 ± 26	371 ± 15	%BGI > %PGI > %LGI ≈ %OGI	6.09 ± 0.12 µM	5.57 ± 0.01 µM	CCCOC(=O)c1cc(O)c(O)c(O)c1 [PG, Propyl gallate]	LG ≈ OG < PG < < BG	decreases the oxidative stability slightly	–	PW^I, partition constant water-interfacial ([2]; [HPCD] = 0): 382 ± 18; PW^I (app), partition constant water-interfacial ([2]; [HPCD] = 0.013 M): 315 ± 14; PW^O, partition constant [4]: 0.85 ± 0.01
